From paper PMC11679793, “Structure-Activity Relationship Study of Majusculamide D: Overcoming Metabolic Instability and Severe Toxicity with a Fluoro Analogue” (Marine Drugs, 2024)
Where two headings read alike, the source gives them in different places.

Columns and labels:
PANC-1 cells = assay: MTT cell activity assay (inhibitory activity against PANC-1 cells); type: cell-based
Method: A total of 3000 PANC-1 cells were resuspended in 200 μL of culture medium and seeded into 96-well plates. After 24 h, the cells were treated with the compound and incubated for an additional 72 h. Following the incubation, 20 μL of 5 mg/mL MTT solution (Solarbio, China) was added to each well in the dark, and the cells were incubated for another 4 h. After incubation, the culture medium was discarded, and the wells were washed with PBS to remove any residual medium. Then, 200 μL of DMSO was added to each well to fully dissolve the formazan crystals, and the solution was mixed thoroughly. The absorbance was measured at 492 nm/570 nm, and the data were analyzed using GraphPad Prism.

[1] = Stability in mouse plasma assay; type: in vitro ADME; conditions: 1 μM, 37 °C, 2 h incubation
Method: Thaw plasma at room temperature and vortex for 3–5 s. Centrifuge at 3000 rpm at 10 °C for 10 min, and carefully transfer the supernatant to a new Eppendorf tube. Preincubate the plasma at 37 °C for 10 min. Prepare a series of test substances by adding 3 μL of the compound (100 μM) to 297 μL of plasma to achieve a final concentration of 1 μM, ensuring that the DMSO concentration in plasma is 1%. Propantheline bromide is used as a positive control. Incubate the mixture at 37 °C, and at specified time points (0, 1, 2, 4, and 24 h), take 50 μL of the plasma sample. To terminate the reaction, add 250 μL of acetonitrile (containing an internal standard), vortex thoroughly, and centrifuge at 16,000 rcf (4 °C) for 10 min. Collect 130 μL of the supernatant and dilute with 70 μL of pure water for LC-MS/MS analysis. The concentration of the test substances in plasma samples was determined using LC-MS/MS. The stability of the test substance in plasma was evaluated by measuring the remaining percentage of the compound in the plasma over time.

pancreatic cancer cells [2] = assay: Clone formation assay; type: cell-based; conditions: 48 h treatment then 10 days culture, concentration-dependent, vs control
Excerpt: dependent manner (Figure S1C). […]
growth and survival of pancreatic cancer cells. […]
Snail and TCF8/ZEB1 both […]
are transcription factors that can inhibit the expression of E-cadherin and promote the EMT process. Vimentin is a marker protein of mesenchymal cells, and its expression increases during EMT, further contribute to the process of metastasis by supporting the structural changes needed for cell migration and invasion.
We examined the effects of compound 1a on above key proteins involved in tumor progression pathways employing Western blot analysis in PANC-1 cells and MIA PaCa-2 […]
1a might inhibit cancer cell invasion and migration by enhancing cell-cell adhesion and barrier function. Conversely, the expression levels of β-catenin, Fibronectin, Snail, […]
Cells were resuspended at a concentration of 300 cells/mL, and 2 mL of the suspension was added to each well of a 6-well plate. After the cells adhered to the plate, the compound was added, and the cells were incubated for 48 hours, followed by replacement with fresh medium. The cells were then cultured for an additional 10 days. Subsequently, the cells were fixed with methanol and stained with crystal violet. The colonies were imaged under a microscope and quantified using ImageJ.
The BeyoClick™ EdU-488 Cell Proliferatio n Assay Kit (Beyotime Biotechnology, China) was used according to the manufacturer's instructions. […]

pancreatic cancer cells [3] = tested on: pancreatic cancer cells; set-up: method as in PMID 30673235; conditions: cited from earlier work

What does the source list for `CCCCC(C)CC(C)C(=O)N(C)C(Cc1ccc(OC)cc1)C(=O)NC(C(=O)N(C)C(C(=O)N1CC(O)CC1C(=O)N1C(=O)C=CC1C)C(C)C)C(C)OC(C)=O` (centres unmarked) [Compound 1a, Majusculamide D]?
IC50 (PANC-1 cells; Homo sapiens, PANC-1, 72 h, read-out: IC50 (nM), inhibitory activity against PANC-1 cells (Table 2), PANC-1 cells, 72 h incubation, mean ± SD, n = 3, Table 2 series): 1.99 ± 0.68 nM; IC50 (PANC-1 cells; read-out: IC50 (nM), inhibitory activity against PANC-1 cells (Table 1), PANC-1 cells, 72 h incubation, mean ± SD, n = 3): 1.88 ± 0.82 nM; remaining percentage in mouse plasma after 2 h [1]: 54.7%; colony formation (pancreatic cancer cells [2]): remarkably reduced colony formation; selectivity against pancreatic cancer cells in vitro (pancreatic cancer cells [3]): up to 4 × 10^3
